Legend:
Assay in all cases: NCI-60 single-dose screen
Type in all cases: cell-based
KM12 = conditions: Homo sapiens, single dose 10 µM, '-' = no inhibition, read-out: % Growth Inhibition
Procedure, shortened: (§1)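 NCI Developmental Therapeutics Program screen across 60 human cancer cell lines from nine tumor types; compounds tested at a single dose of 10 μM.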

RPMI-8226 = conditions: Homo sapiens, single dose 10 µM, '-' = no inhibition, read-out: % Growth Inhibition
Procedure, shortened: as §1

OVCAR-4 = conditions: Homo sapiens, single dose 10 µM, '-' = no inhibition, read-out: % Growth Inhibition
Procedure, shortened: as §1

CAKI-1 = conditions: Homo sapiens, single dose 10 µM, '-' = no inhibition, read-out: % Growth Inhibition
Procedure, shortened: as §1

MALME-3M = conditions: Homo sapiens, single dose 10 µM, '-' = no inhibition, read-out: % Growth Inhibition
Procedure, shortened: as §1

SK-OV-3 = conditions: Homo sapiens, single dose 10 µM, '-' = no inhibition, read-out: % Growth Inhibition
Procedure, shortened: as §1

COLO 205 = conditions: Homo sapiens, single dose 10 µM, '-' = no inhibition, read-out: % Growth Inhibition
Procedure, shortened: as §1

SNB-19 = conditions: Homo sapiens, single dose 10 µM, '-' = no inhibition, read-out: % Growth Inhibition
Procedure, shortened: as §1

EKVX = conditions: Homo sapiens, single dose 10 µM, '-' = no inhibition, read-out: % Growth Inhibition
Procedure, shortened: as §1

SF-295 = conditions: Homo sapiens, single dose 10 µM, '-' = no inhibition, read-out: % Growth Inhibition
Procedure, shortened: as §1

DU-145 = conditions: Homo sapiens, single dose 10 µM, '-' = no inhibition, read-out: % Growth Inhibition
Procedure, shortened: as §1

SR = conditions: Homo sapiens, single dose 10 µM, '-' = no inhibition, read-out: % Growth Inhibition
Procedure, shortened: as §1

M14 = conditions: Homo sapiens, single dose 10 µM, '-' = no inhibition, read-out: % Growth Inhibition
Procedure, shortened: as §1

OVCAR-5 = conditions: Homo sapiens, single dose 10 µM, '-' = no inhibition, read-out: % Growth Inhibition
Procedure, shortened: as §1

MOLT-4 = conditions: Homo sapiens, single dose 10 µM, '-' = no inhibition, read-out: % Growth Inhibition
Procedure, shortened: as §1

HOP-62 = conditions: Homo sapiens, single dose 10 µM, '-' = no inhibition, read-out: % Growth Inhibition
Procedure, shortened: as §1

ACHN 1 = conditions: Homo sapiens, single dose 10 µM, '-' = no inhibition, read-out: % Growth Inhibition
Procedure, shortened: as §1

LOX IMVI = conditions: Homo sapiens, single dose 10 µM, '-' = no inhibition, read-out: % Growth Inhibition
Procedure, shortened: as §1

IGROV1 = conditions: Homo sapiens, IGROV-1, single dose 10 µM, '-' = no inhibition, read-out: % Growth Inhibition
Procedure, shortened: as §1

UACC-257 = conditions: Homo sapiens, single dose 10 µM, '-' = no inhibition, read-out: % Growth Inhibition
Procedure, shortened: as §1

SK-MEL-28 = conditions: Homo sapiens, single dose 10 µM, '-' = no inhibition, read-out: % Growth Inhibition
Procedure, shortened: as §1

786-0 = conditions: Homo sapiens, single dose 10 µM, '-' = no inhibition, read-out: % Growth Inhibition
Procedure, shortened: as §1

U251 = conditions: Homo sapiens, U-251, single dose 10 µM, '-' = no inhibition, read-out: % Growth Inhibition
Procedure, shortened: as §1

PC-3 = conditions: Homo sapiens, single dose 10 µM, '-' = no inhibition, read-out: % Growth Inhibition
Procedure, shortened: as §1

A549/ATCC = conditions: Homo sapiens, single dose 10 µM, '-' = no inhibition, read-out: % Growth Inhibition
Procedure, shortened: as §1

T-47D = conditions: Homo sapiens, T47D, single dose 10 µM, '-' = no inhibition, read-out: % Growth Inhibition
Procedure, shortened: as §1

SF-539 = conditions: Homo sapiens, single dose 10 µM, '-' = no inhibition, read-out: % Growth Inhibition
Procedure, shortened: as §1

OVCAR-3 = conditions: Homo sapiens, single dose 10 µM, '-' = no inhibition, read-out: % Growth Inhibition
Procedure, shortened: as §1

NCI-H460 = conditions: Homo sapiens, single dose 10 µM, '-' = no inhibition, read-out: % Growth Inhibition
Procedure, shortened: as §1

NCI-H522 = conditions: Homo sapiens, single dose 10 µM, '-' = no inhibition, read-out: % Growth Inhibition
Procedure, shortened: as §1

SNB-75 = conditions: Homo sapiens, single dose 10 µM, '-' = no inhibition, read-out: % Growth Inhibition
Procedure, shortened: as §1

UO-31 = conditions: Homo sapiens, single dose 10 µM, '-' = no inhibition, read-out: % Growth Inhibition
Procedure, shortened: as §1

SW-620 = conditions: Homo sapiens, single dose 10 µM, '-' = no inhibition, read-out: % Growth Inhibition
Procedure, shortened: as §1

MDA-MB231/ATCC = conditions: Homo sapiens, MDA-MB-231, single dose 10 µM, '-' = no inhibition, read-out: % Growth Inhibition
Procedure, shortened: as §1

HCT-15 = conditions: Homo sapiens, single dose 10 µM, '-' = no inhibition, read-out: % Growth Inhibition
Procedure, shortened: as §1

HT29 = conditions: Homo sapiens, HT-29, single dose 10 µM, '-' = no inhibition, read-out: % Growth Inhibition
Procedure, shortened: as §1

RXF 393 = conditions: Homo sapiens, single dose 10 µM, '-' = no inhibition, read-out: % Growth Inhibition
Procedure, shortened: as §1

BT-549 = conditions: Homo sapiens, single dose 10 µM, '-' = no inhibition, read-out: % Growth Inhibition
Procedure, shortened: as §1

MDA-MB-468 = conditions: Homo sapiens, single dose 10 µM, '-' = no inhibition, read-out: % Growth Inhibition
Procedure, shortened: as §1

NCI-H322M = conditions: Homo sapiens, single dose 10 µM, '-' = no inhibition, read-out: % Growth Inhibition
Procedure, shortened: as §1

NCI-H23 = conditions: Homo sapiens, single dose 10 µM, '-' = no inhibition, read-out: % Growth Inhibition
Procedure, shortened: as §1

HOP-92 = conditions: Homo sapiens, single dose 10 µM, '-' = no inhibition, read-out: % Growth Inhibition
Procedure, shortened: as §1

HL-60(TB) = conditions: Homo sapiens, single dose 10 µM, '-' = no inhibition, read-out: % Growth Inhibition
NCI/ADR-RES = conditions: Homo sapiens, single dose 10 µM, '-' = no inhibition, read-out: % Growth Inhibition
Procedure, shortened: as §1

A498 = conditions: Homo sapiens, single dose 10 µM, '-' = no inhibition, read-out: % Growth Inhibition
Procedure, shortened: as §1

UACC-62 = conditions: Homo sapiens, single dose 10 µM, '-' = no inhibition, read-out: % Growth Inhibition
Procedure, shortened: as §1

TK-10 = conditions: Homo sapiens, single dose 10 µM, '-' = no inhibition, read-out: % Growth Inhibition
Procedure, shortened: as §1

CCCSc1nc(-c2ccc(Cl)cc2)cc(-c2ccc(OC)cc2)n1 [Compound 11, 4-(4-Chlorophenyl)-6-(4-methoxyphenyl)-2-(propylthio)pyrimidine]
inhibition at 10 µM (KM12): 1.24% | inhibition at 10 µM (RPMI-8226): < 0% | inhibition at 10 µM (OVCAR-4): < 0% | inhibition at 10 µM (CAKI-1): 7.98% | inhibition at 10 µM (MALME-3M): < 0% | inhibition at 10 µM (SK-OV-3): < 0% | inhibition at 10 µM (COLO 205): < 0% | inhibition at 10 µM (SNB-19): 1.03% | inhibition at 10 µM (EKVX): 6.92% | inhibition at 10 µM (SF-295): 6.79% | inhibition at 10 µM (DU-145): 0.44% | inhibition at 10 µM (SR): 14.6% | inhibition at 10 µM (M14): < 0% | inhibition at 10 µM (OVCAR-5): < 0% | inhibition at 10 µM (MOLT-4): 2.06% | inhibition at 10 µM (HOP-62): < 0% | inhibition at 10 µM (ACHN 1): < 0% | inhibition at 10 µM (LOX IMVI): < 0% | inhibition at 10 µM (IGROV1): < 0% | inhibition at 10 µM (UACC-257): < 0% | inhibition at 10 µM (SK-MEL-28): < 0% | inhibition at 10 µM (786-0): 0.11% | inhibition at 10 µM (U251): 5.99% | inhibition at 10 µM (PC-3): < 0% | inhibition at 10 µM (A549/ATCC): 6.74% | inhibition at 10 µM (T-47D): 8.26% | inhibition at 10 µM (SF-539): < 0% | inhibition at 10 µM (OVCAR-3): < 0% | inhibition at 10 µM (NCI-H460): < 0% | inhibition at 10 µM (NCI-H522): 9.17% | inhibition at 10 µM (SNB-75): < 0% | inhibition at 10 µM (UO-31): 9.15% | inhibition at 10 µM (SW-620): 0.11% | inhibition at 10 µM (MDA-MB231/ATCC): < 0% | inhibition at 10 µM (HCT-15): 7.25% | inhibition at 10 µM (HT29): 10.7% | inhibition at 10 µM (RXF 393): < 0% | inhibition at 10 µM (BT-549): < 0% | inhibition at 10 µM (MDA-MB-468): 7.92% | inhibition at 10 µM (NCI-H322M): < 0% | inhibition at 10 µM (NCI-H23): < 0% | inhibition at 10 µM (HOP-92): < 0% | inhibition at 10 µM (HL-60(TB)): 13.5% | inhibition at 10 µM (NCI/ADR-RES): < 0% | inhibition at 10 µM (A498): 2.73% | inhibition at 10 µM (UACC-62): 18.1% | inhibition at 10 µM (TK-10): < 0%

From article PMC11576293, “New series of 4,6-diaryl pyrimidines: facile synthesis and antiproliferative activity as dual EGFR/VEGFR-2 inhibitors” (Frontiers in Chemistry, 2024)
